Results published in patent US12138320B2, “Composition and methods for tumor imaging and treatment” (The University of Chicago, priority 2020, dated 2024).

Legend:
NCEH1 = target: T1, NCEH1 (Homo sapiens, UniProt Q6PIU2); assay: Gel-based competitive ABPP (FP-Rho) of cancer cells treated in situ (live cells); assay type: cell-based; conditions: live cells
T1 construct: serine hydrolase activity in membrane proteome fractions of MDA-MB231 breast cancer cells treated with the indicated concentrations; endogenous in cells; host or cells: PC3 prostate cancer cells; MDA-MB231 breast cancer cells
T1 sequence (Q6PIU2 1-408): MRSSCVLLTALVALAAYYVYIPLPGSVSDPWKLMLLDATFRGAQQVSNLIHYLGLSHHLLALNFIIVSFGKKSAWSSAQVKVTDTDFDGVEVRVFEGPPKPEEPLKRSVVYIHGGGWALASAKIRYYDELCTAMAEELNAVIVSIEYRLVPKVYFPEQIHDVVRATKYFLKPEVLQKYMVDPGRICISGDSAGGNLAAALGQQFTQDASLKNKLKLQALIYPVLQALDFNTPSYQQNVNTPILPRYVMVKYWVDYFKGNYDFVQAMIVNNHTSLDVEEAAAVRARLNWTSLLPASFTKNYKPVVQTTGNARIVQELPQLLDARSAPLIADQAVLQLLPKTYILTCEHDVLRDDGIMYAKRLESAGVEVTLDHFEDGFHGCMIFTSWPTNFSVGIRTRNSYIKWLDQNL
Experimental: Proteome Preparation: Human PC3 and MDA-MB231 cells were grown in Roswell Park Memorial Institute (RPMI) medium and Dulbecco's Modified Eagle Medium (DMEM), respectively, supplemented with 10% fetal bovine serum (FBS) and 2 mM L-glutamine, and cultured in a humidified 5% CO2 incubator at 37° C. Cells were washed twice with phosphate buffered saline (PBS, pH 7.5), collected by scraping, resuspended in 0.2 ml PBS, sonicated, and fractionated via centrifugation (100,000×g, 45 min) into a pellet (containing membrane proteins) and supernatant (containing soluble proteins). For murine proteomes, mouse tissues were Dounce-homogenized on ice in cold PBS, followed by a low-speed spin (1,400×g, 5 min) to remove debris. After sonication, the membrane and soluble proteomes were fractionated as described above. All sample pellets were washed and resuspended in PBS via sonication. Protein concentrations were determined using a Bradford protein assay kit (Bio-Rad, Hercules, California, United States of America)). Samples were stored at −80° C. until use.
Cellular JW199 Treatments: JW199 was dissolved in dimethyl sulfoxide (DMSO) vehicle, which was diluted into media or buffer before addition to cells or proteomes, respectively. For in vitro proteome experiments, the final DMSO concentration was 4%. For live cell (in situ) treatments, 2×10^6 cells were seeded in 6 cm dishes (100% confluency) 24 hours prior to JW199 treatment in serum-free media. At the end of the experiment, cells were washed and collected, as described above, for gel-based activity profiling.
Gel-based Activity Profiling: Cell lysates were treated with 1 μM fluorophosphonate-rhodamine (FP-rho) for 30 min at room temperature (50 μL total reaction volume). Reactions were quenched with one volume of standard 4× sodium dodecyl sulfate/polyacrylamide gel electrophoresis (SDS/PAGE) reducing sample buffer, resolved on 10% acrylamide SDS/PAGE gels, and visualized in-gel with a fluorescence scanner sold under the tradename CHEMIDOC™ MP (Bio-Rad, Hercules, California, United States of America). Densitometric quantification of band intensities were used to calculate the percent inhibition via JW199. 50% inhibitory concentration (IC50) values were determined from dose-response curves constructed in GraphPad Prism software from three independent replicates for each inhibitor concentration. For competitive ABPP with JW576, tumor lysates were treated with 1 μM JW576 for 30 min at 37° C. (50 μL total reaction volume). Competitive ABPP was then conducted as described above. NCEH1 activity was calculated by densitometric quantification (ImageJ software; National Institutes of Health (NIH), Bethesda, Maryland, United States of America) of JW576-labeled band intensity (BODIPY fluorescence) from three independent replicates.

[1] = test system: MDA-MB231 human breast cancer xenografts; assay: PET/CT imaging and ex vivo biodistribution in mice bearing MDA-MB231 xenografts; parameters: species or system mouse
Experimental: In vivo microPET/CT imaging: All imaging was performed by the Integrated Small Animal Imaging Research Resource (iSAIRR) at the University of Chicago (Chicago, Illinois, United States of America) on a β-Cube and X-Cube (Molecubes NV, Ghent, Belgium). Athymic nude mice (males and females, aged 6 to 8 weeks; HSD strain, Harlan-Envigo, Indianapolis, Indiana, United States of America) were anesthetized via inhalation with 1.5-2% isoflurane and injected with approximately 150 μCi (5.55 Megabecquerel (MBq)) of [^18F]JW199 in 150 μL of physiologic saline through the lateral tail vein, followed by awake incubation for 1 hour and 45 minutes. MicroCT images were acquired using the general purpose protocol, with energy of 50 KeV and a tube current of 100 μA. Respiration rate and body temperature of the animal were constantly monitored during the entire scanning period with the p-Cube and X-Cube onboard monitoring system. […]
Dynamic reconstruction was performed using a three-dimensional OSEM algorithm with 400 μm isometric voxel size. […] 3D regions of interest (ROIs) were drawn and standardized uptake values (SUVs) and percent injected dose per cubic centimeter of tissue (% ID/cc) were calculated for each ROI and time point. % ID/cc was calculated as a ratio of tissue radioactivity concentration (mCi/g) at time of scan to total injected activity (millicurie (mCi)) at time of scan. […]

Compound: CC(C)c1ccccc1OC(=O)NCCc1ccc(OCC[18F])cc1 [[^18F]JW199, fluorine-18-labeled 2-isopropylphenyl-(4-(2-fluoroethoxy)phenethyl)carbamate]
- concentrations at which active NCEH1 is labeled in live cells (NCEH1): nM concentrations
- radiotracer accumulation in tumor ([1]; 150 μCi i.v., dynamic PET/CT): radiotracer accumulation in breast tumor xenograft cells
- total radioactivity in bulk tumor tissue relative to surrounding muscle ([1]; ex vivo quantitation, 3 hours after injection, breast cancer model): higher total radioactivity
